Patent US20230139171A1 (SITA Information Networking Computing UK Limited, priority 2019, published 2023)

Key:
Type in all cases: cell-based
[1] = target: T1, human TLR8 (Homo sapiens, UniProt Q9NR97); assay: TLR8 inhibition reporter assay (HEK-Blue cells, SEAP reporter, R848 stimulation); settings: HEK-Blue cells overexpressing human TLR8, SEAP reporter, R848 15.9 μM; read-out: TLR8 IC50
T1 construct: host or cells: HEK-Blue cells
T1 sequence (Q9NR97 27-1041): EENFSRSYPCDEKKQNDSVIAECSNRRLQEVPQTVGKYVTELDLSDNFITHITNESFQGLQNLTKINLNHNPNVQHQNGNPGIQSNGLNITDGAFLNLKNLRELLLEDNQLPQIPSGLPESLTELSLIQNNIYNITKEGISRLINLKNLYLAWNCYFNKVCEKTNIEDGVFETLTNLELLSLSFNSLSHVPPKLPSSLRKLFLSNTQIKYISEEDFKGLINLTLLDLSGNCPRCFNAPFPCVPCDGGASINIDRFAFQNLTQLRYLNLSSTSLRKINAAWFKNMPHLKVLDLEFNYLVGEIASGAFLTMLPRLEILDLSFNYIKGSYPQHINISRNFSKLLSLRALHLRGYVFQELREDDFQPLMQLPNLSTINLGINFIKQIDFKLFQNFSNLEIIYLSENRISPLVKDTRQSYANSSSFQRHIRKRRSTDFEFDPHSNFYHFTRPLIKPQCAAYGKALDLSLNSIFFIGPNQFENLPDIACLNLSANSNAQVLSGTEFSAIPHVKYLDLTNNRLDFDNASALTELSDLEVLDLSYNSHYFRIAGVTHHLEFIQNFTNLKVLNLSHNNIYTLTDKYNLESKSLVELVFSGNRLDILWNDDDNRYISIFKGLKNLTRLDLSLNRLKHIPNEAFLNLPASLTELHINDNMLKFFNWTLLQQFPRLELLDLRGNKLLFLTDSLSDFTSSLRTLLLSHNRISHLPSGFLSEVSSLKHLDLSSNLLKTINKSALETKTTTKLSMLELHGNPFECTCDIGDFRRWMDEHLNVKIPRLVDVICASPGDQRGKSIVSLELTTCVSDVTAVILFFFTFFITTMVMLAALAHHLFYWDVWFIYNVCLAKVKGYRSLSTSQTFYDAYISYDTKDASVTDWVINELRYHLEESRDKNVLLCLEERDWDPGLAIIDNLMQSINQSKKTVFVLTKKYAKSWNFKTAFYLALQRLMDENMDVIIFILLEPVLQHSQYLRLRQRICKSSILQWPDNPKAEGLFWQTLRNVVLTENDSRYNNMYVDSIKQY
How it was run: (§1)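 Compound treatment: 30 min, RT, 0.05 nM–50 μM final. Agonist: TLR7 gardiquimod 7.5 μM; TLR8 R848 15.9 μM; TLR9 ODN2006 5 nM. Incubation 22 h, 37 °C, 5% CO2. Readout SEAP, HEK-Blue Detection.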

[2] = target: T2, human TLR9 (Homo sapiens, UniProt Q9NR96); assay: TLR9 inhibition reporter assay (HEK-Blue cells, SEAP reporter, ODN2006 stimulation); settings: HEK-Blue cells overexpressing human TLR9, SEAP reporter, ODN2006 5 nM
T2 construct: host or cells: HEK-Blue cells
T2 sequence (Q9NR96 26-1032): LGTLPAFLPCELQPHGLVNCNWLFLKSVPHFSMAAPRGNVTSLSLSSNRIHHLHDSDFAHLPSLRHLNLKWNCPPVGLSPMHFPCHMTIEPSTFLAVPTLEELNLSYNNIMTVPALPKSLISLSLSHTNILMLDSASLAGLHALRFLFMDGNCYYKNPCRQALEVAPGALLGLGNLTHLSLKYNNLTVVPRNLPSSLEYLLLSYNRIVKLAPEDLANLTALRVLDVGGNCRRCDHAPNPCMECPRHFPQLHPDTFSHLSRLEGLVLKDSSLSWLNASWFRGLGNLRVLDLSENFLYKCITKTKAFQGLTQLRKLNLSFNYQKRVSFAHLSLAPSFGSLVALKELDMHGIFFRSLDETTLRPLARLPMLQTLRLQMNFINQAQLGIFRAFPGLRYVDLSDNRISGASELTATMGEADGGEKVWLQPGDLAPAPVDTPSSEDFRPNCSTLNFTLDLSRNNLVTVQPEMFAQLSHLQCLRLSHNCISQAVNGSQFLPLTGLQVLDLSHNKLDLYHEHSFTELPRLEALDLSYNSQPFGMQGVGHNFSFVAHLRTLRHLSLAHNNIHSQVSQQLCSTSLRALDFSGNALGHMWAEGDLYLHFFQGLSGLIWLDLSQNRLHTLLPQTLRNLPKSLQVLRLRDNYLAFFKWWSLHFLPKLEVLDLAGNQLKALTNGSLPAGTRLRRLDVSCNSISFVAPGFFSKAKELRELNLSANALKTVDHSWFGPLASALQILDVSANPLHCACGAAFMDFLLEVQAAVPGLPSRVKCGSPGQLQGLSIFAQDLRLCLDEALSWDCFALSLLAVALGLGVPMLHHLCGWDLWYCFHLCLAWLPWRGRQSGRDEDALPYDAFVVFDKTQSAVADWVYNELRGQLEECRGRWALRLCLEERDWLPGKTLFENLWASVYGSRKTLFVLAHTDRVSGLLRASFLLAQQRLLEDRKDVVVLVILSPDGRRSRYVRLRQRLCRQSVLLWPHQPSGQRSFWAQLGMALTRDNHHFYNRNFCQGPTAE
How it was run: as §1

[3] = target: T3, human TLR7 (Homo sapiens, UniProt Q9NYK1); assay: TLR7 inhibition reporter assay (HEK-Blue cells, SEAP reporter, gardiquimod stimulation); settings: HEK-Blue cells overexpressing human TLR7, SEAP reporter, gardiquimod 7.5 μM; read-out: TLR7 IC50
T3 construct: host or cells: HEK-Blue cells
T3 sequence (Q9NYK1 27-1049): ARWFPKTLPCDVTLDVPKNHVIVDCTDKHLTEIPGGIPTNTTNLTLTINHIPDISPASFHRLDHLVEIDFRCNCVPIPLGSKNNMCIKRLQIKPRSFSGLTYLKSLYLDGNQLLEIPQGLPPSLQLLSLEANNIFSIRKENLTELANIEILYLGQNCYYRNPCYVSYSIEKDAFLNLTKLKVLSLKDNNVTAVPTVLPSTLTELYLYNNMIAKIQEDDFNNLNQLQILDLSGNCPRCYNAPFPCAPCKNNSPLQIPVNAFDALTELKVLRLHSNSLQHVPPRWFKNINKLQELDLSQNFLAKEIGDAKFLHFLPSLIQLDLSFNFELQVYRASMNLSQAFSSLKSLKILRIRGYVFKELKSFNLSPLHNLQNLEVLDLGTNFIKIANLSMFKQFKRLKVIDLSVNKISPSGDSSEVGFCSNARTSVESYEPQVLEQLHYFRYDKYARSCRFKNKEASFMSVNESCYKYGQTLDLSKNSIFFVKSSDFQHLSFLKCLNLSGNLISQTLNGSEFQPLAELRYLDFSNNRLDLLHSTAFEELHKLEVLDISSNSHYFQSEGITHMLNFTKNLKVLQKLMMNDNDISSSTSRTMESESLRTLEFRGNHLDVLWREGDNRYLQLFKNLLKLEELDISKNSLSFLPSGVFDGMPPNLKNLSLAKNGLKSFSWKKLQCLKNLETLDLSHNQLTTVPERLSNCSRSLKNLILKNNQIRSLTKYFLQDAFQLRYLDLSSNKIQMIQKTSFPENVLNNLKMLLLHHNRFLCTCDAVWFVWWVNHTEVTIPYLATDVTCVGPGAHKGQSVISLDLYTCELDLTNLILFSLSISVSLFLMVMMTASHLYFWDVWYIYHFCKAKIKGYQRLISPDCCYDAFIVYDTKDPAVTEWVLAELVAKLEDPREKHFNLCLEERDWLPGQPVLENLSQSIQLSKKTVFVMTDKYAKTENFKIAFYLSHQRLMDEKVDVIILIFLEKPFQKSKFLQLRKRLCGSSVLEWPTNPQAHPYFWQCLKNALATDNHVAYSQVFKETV
How it was run: as §1

SMILES | IC50 [1] [nM] | IC50 [2] [nM] | IC50 [3] [nM]
COc1cc(-c2[nH]c3sc(C4CCC(NC5(C#N)CC5)CC4)nc3c2C(C)C)cn2ncnc12 (stereo not drawn) [Example 106, 1-((4-(6-isopropyl-5-(8-methoxy-[1,2,4]triazolo[1,5-a]pyridin-6-yl)-4H-pyrrolo[3,2-d]thiazol-2-yl)cyclohexyl)amino)cyclopropane-1-carbonitrile] | 90.9 | 14300 | 2.25
COc1cc(-c2[nH]c3sc(C4CCC(NC(=O)CN(C)C)CC4)nc3c2C(C)C)cn2ncnc12 (stereo not drawn) [Example 126, 2-(dimethylamino)-N-(4-(6-isopropyl-5-(8-methoxy-[1,2,4]triazolo[1,5-a]pyridin-6-yl)-4H-pyrrolo[3,2-d]thiazol-2-yl)cyclohexyl)acetamide] | 6.83 | 13200 | 0.98
CCN(C)CC(=O)N[C@H]1CC[C@H](c2nc3c(C(C)C)c(-c4cc(OC)c5ncnn5c4)[nH]c3s2)CC1 [Example 128, Trans 2-(ethyl(methyl)amino)-N-(4-(6-isopropyl-5-(8-methoxy-[1,2,4]triazolo[1,5-a]pyridin-6-yl)-4H-pyrrolo[3,2-d]thiazol-2-yl)cyclohexyl)acetamide] | 8.29 | 13400 | 1.21
COc1cc(-c2[nH]c3sc(C4CCC(NC(=O)CNCC(C)C)CC4)nc3c2C(C)C)cn2ncnc12 (stereo not drawn) [Example 129, 2-(isobutylamino)-N-(4-(6-isopropyl-5-(8-methoxy-[1,2,4]triazolo[1,5-a]pyridin-6-yl)-4H-pyrrolo[3,2-d]thiazol-2-yl)cyclohexyl)acetamide] | 7.36 | 14400 | 1.34
Cc1c(-c2[nH]c3sc(N4CCNCC4)nc3c2C(C)C)cn2ncnc2c1C [Example 278, 5-(7,8-dimethyl-[1,2,4]triazolo[1,5-a]pyridin-6-yl)-6-isopropyl-2-(piperazin-1-yl)-4H-pyrrolo[3,2-d]thiazole] | 0.33 | 10800 | 1.43
Cc1c(-c2[nH]c3sc(N4CCN(C(=O)CN(C)C)CC4)nc3c2C(C)C)cn2ncnc2c1C [Example 280, 1-(4-(5-(7,8-dimethyl-[1,2,4]triazolo[1,5-a]pyridin-6-yl)-6-isopropyl-4H-pyrrolo[3,2-d]thiazol-2-yl)piperazin-1-yl)-2-(dimethylamino)ethan-1-one] | 0.73 | 4960 | 1.26

Further compounds by falling IC50 [1], results first:

IC50 [1] [nM] | IC50 [2] [nM] | IC50 [3] [nM] | SMILES
190 | 15400 | 3.6 | COc1cc(-c2[nH]c3sc(C4CCC(NC5(C#N)CC5)CC4)nc3c2C(C)C)cn2ncnc12 (stereo not drawn) [Example 107, 1-((4-(6-isopropyl-5-(8-methoxy-[1,2,4]triazolo[1,5-a]pyridin-6-yl)-4H-pyrrolo[3,2-d]thiazol-2-yl)cyclohexyl)amino)cyclopropane-1-carbonitrile]
178 | > 50000 | 1.99 | COc1cc(-c2[nH]c3sc(C4CCC(NS(C)(=O)=O)CC4)nc3c2C(C)C)cn2ncnc12 (stereo not drawn) [Example 127, N-(4-(6-isopropyl-5-(8-methoxy-[1,2,4]triazolo[1,5-a]pyridin-6-yl)-4H-pyrrolo[3,2-d]thiazol-2-yl)cyclohexyl)methanesulfonamide]
31.5 | 28600 | 7.72 | COc1cc(-c2[nH]c3sc(C4CCC(N(C)C5COC5)CC4)nc3c2C(C)C)cn2ncnc12 (stereo not drawn) [Example 124, N-(4-(6-isopropyl-5-(8-methoxy-[1,2,4]triazolo[1,5-a]pyridin-6-yl)-4H-pyrrolo[3,2-d]thiazol-2-yl)cyclohexyl)-N-methyloxetan-3-amine]
1.24 | 23800 | 1.8 | Cc1c(-c2[nH]c3sc(C4CCC(NCC(N)=O)CC4)nc3c2C(C)C)cn2ncnc2c1C (stereo not drawn) [Example 210, 2-((4-(5-(7,8-dimethyl-[1,2,4]triazolo[1,5-a]pyridin-6-yl)-6-isopropyl-4H-pyrrolo[3,2-d]thiazol-2-yl)cyclohexyl)amino)acetamide]
1.08 | 23900 | 11 | Cc1c(-c2[nH]c3sc(N4CCNCC4)nc3c2C(C)C)cn(C)c(=O)c1C [Example 279, 5-(6-isopropyl-2-(piperazin-1-yl)-4H-pyrrolo[3,2-d]thiazol-5-yl)-1,3,4-trimethylpyridin-2(1H)-one]
0.58 | 14300 | 0.79 | Cc1c(-c2[nH]c3sc(C4CCC(NCC(N)=O)CC4)nc3c2C(C)C)cn2ncnc2c1C (stereo not drawn) [Example 211, 2-((4-(5-(7,8-dimethyl-[1,2,4]triazolo[1,5-a]pyridin-6-yl)-6-isopropyl-4H-pyrrolo[3,2-d]thiazol-2-yl)cyclohexyl)amino)acetamide]
0.45 | 42600 | 9.49 | Cc1c(-c2[nH]c3sc(N4CCN(CC(C)(C)O)CC4)nc3c2C(C)C)cn2ncnc2c1C [Example 281, 1-(4-(5-(7,8-dimethyl-[1,2,4]triazolo[1,5-a]pyridin-6-yl)-6-isopropyl-4H-pyrrolo[3,2-d]thiazol-2-yl)piperazin-1-yl)-2-methylpropan-2-ol]
